These results are taken from PMC2989597 (Current topics in medicinal chemistry, 2009).

In one data set the target is AmpC β-lactamase. The settings on record: cited from earlier work.
Another data set is described as follows: Plasma protein binding. It is filed as in vitro ADME. The settings on record: low free fraction.
The nature of the next data set: Microsomal stability. Format: in vitro ADME. The settings on record: rat.
Another data set concerns Caco-2. Kind of data set: Caco-2 permeability. It is filed as in vitro ADME. (In general: Caco-2 cells form a polarised layer with tight junctions and transporters.)
The next data set concerns α-galactosidase. The settings on record: cited from earlier work.
A further data set relates to α-glucosidase. The conditions noted are these: cited from earlier work.
The subject of a further data set is N370S mutant GC. The conditions noted are these: N370S mutant GC fibroblasts, 40 μM; cited from earlier work.
A further data set relates to Cyp. Kind of data set: Cyp inhibition. It is filed as in vitro ADME.
The test system of data set [1] is β-N-acetylflucosaminidase. The conditions noted are these: cited from earlier work.
The next data set can be described thus: Aqueous solubility. Format: physicochemical.
A further data set addresses glucocerebrosidase (GC). The conditions noted are these: native GC; cited from earlier work.
In data set [2] the test system is Thyroid stimulating hormone receptor (TSHR). The conditions noted are these: AID 926; cited from earlier work.
Data set [3] concerns thyroperoxidase mRNA expression. The settings on record: human thyrocytes, 10 μM and 30 μM; cited from earlier work.
In data set [4] the test system is TSHR. The conditions noted are these: sera from 4 Graves' disease patients, cAMP accumulation; cited from earlier work. Background: Cyclic AMP is a second messenger, typically raised through Gs and lowered through Gi signalling.
For data set [5], the system named is TSHR. The settings on record: cited from earlier work.
Another data set has as its system LHR. The settings on record: cited from earlier work.
In the next data set the test system is S. mansoni adult worms. The settings on record: 100 μM carboxy-PTIO (NO scavenger); cited from earlier work.
In another data set the test system is S. mansoni TGR. The conditions noted are these: single 10 μM exposure to 15 nM S. mansoni TGR, NADPH; cited from earlier work.

By IC50 is commonly meant the concentration that inhibits the measured activity by half. As for `CC(C)[C@H](NC(=O)OC(C)(C)C)c1nnc(S(=O)(=O)Cc2c(F)cccc2Cl)o1` [NCGC00067197, (S)-tert-butyl 1-(5-(2-chloro-6-fluorobenzylsulfonyl)-1,3,4-oxadiazol-2-yl)-2-methylpropylcarbamate], the half-inhibitory concentration (IC50) on AmpC β-lactamase is 16 nM.

What is called Ki is a measure of affinity in units of concentration, obtained from inhibition or displacement. As to `Cc1cc(N2CCOCC2)nc2ccc(NC(=O)C3CCCCC3)cc12` [NCGC00092410, N-(4-methyl-2-morpholinoquinolin-6-yl)cyclohexanecarboxamide], in “Plasma protein binding”, the plasma protein binding result is “high level”. Besides, in the data set “Microsomal stability”, the microsomal stability result is reported as “acceptable”. Further, the Caco-2 permeability result in the data set on Caco-2 was “acceptable”. Further, the “inhibitory capacity for α-galactosidase” value with α-galactosidase is recorded as “no inhibitory capacity”. In the data set with α-glucosidase, the “inhibitory capacity for α-glucosidase” value is on record as “no inhibitory capacity”. For the same compound, the “co-localization of mutant GC to the lysosome” value in the data set with N370S mutant GC is listed as “co-localization of this mutant form of GC to the lysosome”. For the same compound, in the data set on Cyp, the Cyp inhibition result is listed as “no relevant Cyp inhibition”. For the same compound, in data set [1], the “inhibitory capacity for β-N-acetylflucosaminidase” value is listed as “no inhibitory capacity”. For the same compound, the aqueous solubility entry in “Aqueous solubility” is listed as “acceptable”. Further, the Ki at glucocerebrosidase (GC) is 21 nM.

Consider `O=C(O)c1ccc2c(c1)C(=O)N([C@H](Cc1cccc3ccccc13)C(=O)O)C2=O` [NCGC00161790, (R)-2-(1-carboxy-2-(naphthalen-1-yl)ethyl)-1,3-dioxoisoindoline-5-carboxylic acid], for which, on AmpC β-lactamase, the inhibition constant Ki is 5000 nM.

As to `COc1ccc(C2Nc3ccccc3C(=O)N2Cc2ccccc2)cc1COc1ccc(NC(C)=O)cc1` (centres unmarked) [NCGC00161876, N-(4-(5-(3-benzyl-4-oxo-1,2,3,4-tetrahydroquinazolin-2-yl)-2-methoxybenzyloxy)phenyl)acetamide], the “TSHR agonism in qHTS” value in [2] is recorded as “agonists”.

Take `COC/C=C/c1ccc(-c2nc(SC)nc3sc(C(=O)NC(C)(C)C)c(N)c23)cc1` [NCGC00166332]: the “blocking thyroperoxidase mRNA expression” value in data set [3] is recorded as “capable of blocking”. Further, the “blocking the activity of thyroid-stimulating antibodies” value in the data set on TSHR [4] is “capable of blocking”. The TSHR antagonism entry in the data set with TSHR [5] is given as “antagonist”.

`COc1cccc(-c2nc(SC)nc3sc(C(=O)NC(C)(C)C)c(N)c23)c1` [Org 41841, reference compound]: the “response at TSHR” value with TSHR [5] (lower potency relative to LHR) is “agonistic response”. In the data set with LHR, the LHR agonism result was “highly potent”.

As for `N#Cc1c(-c2ccccc2)no[n+]1[O-]` [furoxan, 3-cyano-4-phenyl-1,2,5-oxadiazole 2-oxide], in the data set with S. mansoni adult worms, the “worm killing potential in the presence of carboxy-PTIO” value was “largely mitigated”. Also, the NO release result with S. mansoni TGR is on record as “appreciable amount of NO”.
